Data from patent US12226410B2, “Methods for enhancing cellular clearance of pathological molecules via activation of the cellular protein ykt6” (NORTHWESTERN UNIVERSITY, priority 2019, dated 2025).
“Also recorded” adds a separate entry of the source. Each block holds one molecule with its values, some of them ahead of it.

Assays:
[1] = target: T1, ykt6 (Homo sapiens, UniProt O15498); assay: GFP-ykt6 / GM130 colocalization in Hela cells; assay type: cell-based; details: Hela cells stably expressing GFP-ykt6; 2 days, various concentrations
T1 construct: expressed in transfected cells
T1 sequence (O15498 1-198): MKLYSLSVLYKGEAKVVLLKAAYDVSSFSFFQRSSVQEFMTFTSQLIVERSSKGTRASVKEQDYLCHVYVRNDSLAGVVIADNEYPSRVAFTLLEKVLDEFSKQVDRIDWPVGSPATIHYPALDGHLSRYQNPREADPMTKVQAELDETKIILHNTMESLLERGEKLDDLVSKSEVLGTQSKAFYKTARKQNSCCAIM
Procedure: FIG. 19. […] A) Hela cells stably expressing GFP-ykt6 (green) were treated with #20 for 2 days at various concentrations, fixed, stained with Golgi marker GM130 (red), and colocalization was quantified by Pearson's correlation. Each plot represents an individual cell, from 3 culture wells. LNK-754 was used at 10 nM. B) Stable transfected Hela cells were incubated as in A followed by biochemical fractionation/western blot to detect cytosolic (cyt) or membrane (mem) ykt6. The assay was repeated 3 times, representative blot shown.
We tested the activity of Compound #20 ((3R)-1-[(1-{[1-(4,5-dimethylthiophene-2-carbonyl)piperidin-4-yl]methyl}-1H-1,2,3-triazol-4-yl)methyl]pyrrolidin-3-amine) regarding activation of ykt6 in Hela cells. (See FIG. 19). Hela cells stably expressing GFP-ykt6 were treated with Compound #20 for 2 days at various concentrations, fixed, stained with Golgi marker GM130, and colocalization was quantified by Pearson's correlation.

[2] = target: T2, ykt6 SNARE binding (STX5) (Homo sapiens, UniProt O15498); assay: Co-IP of GFP-ykt6 and STX5 in Hela cells; assay type: cell-based; details: Hela cells stably expressing GFP-ykt6; 2 days
T2 construct: expressed in transfected cells
T2 sequence (O15498 1-195 limits assumed): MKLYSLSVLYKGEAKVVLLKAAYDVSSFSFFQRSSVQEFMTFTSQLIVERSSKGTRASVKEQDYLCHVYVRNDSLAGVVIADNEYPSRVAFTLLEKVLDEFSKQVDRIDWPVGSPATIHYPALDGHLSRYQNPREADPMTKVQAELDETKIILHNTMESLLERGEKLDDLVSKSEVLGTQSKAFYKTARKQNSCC

[3] = system: ykt6 SNARE complexes; assay: Co-IP of GFP-ykt6 SNARE complexes under lysosomal stress; assay type: cell-based, human
Procedure: FIGS. 3A, 3B, 3C, 3D, 3E, 3F, 3G, 3H, 3I, 3J, and 3K. Ykt6 is activated in response to lysosomal stress. 3A) Ykt6 membrane shift analysis in bafA1 (200 nM, 2 hrs) or NH4Cl (1M, 12 hrs) treated iPSn (d60). CBB, coomassie brilliant blue, (BafA1 and NH4Cl are indicated, n=7-10). 3B) Co-IP of GFP-ykt6 and bet1 in control iPSn (d60) treated with bafA1 (n=3). 3C) Ykt6 and GM130 immunofluorescence analysis of bafA1-treated H4 cells (n=9). Scale bars=10 um. 3D) Ykt6 membrane shift analysis in CBE-treated SH-SY5Y cells (50 μM, 2d, n=3). 3E) Co-IP of GFP-ykt6, bet1 and STX5 in CBE-treated SHSY5Y cells (n=5). 3F) Ykt6 membrane shift analysis in control or Gaucher disease (GD) iPSn (d100). a-Syn was knocked-out (SNCA KO) in GD lines by CRISPR/Cas9. Two exposures are included to better visualize cyt and mem ykt6 (n=4). 3G) Ykt6 membrane shift analysis in lenti-infected SH-SY5Y cells (moi3, dpi 10) (n=3). C, cytosolic; N, nuclear. 3H) GCase maturation was assessed by endo H digest in lenti-infected SH-SY5Y cells. […] 3I) Control iPSn were infected as in 3H and analyzed for GCase maturation (n=3). […]
To co-IP ykt6 SNARE assemblies, approximately 106-107 cells expressing GFP-tagged YKT6, were harvested in 1 ml of PBS, scraped off the plate and transferred to centrifuge tubes. […] Eluates were analyzed by western blot as described below. The samples were not analyzed in a blinded manner.

[4] = system: ykt6; assay: Ykt6 membrane shift analysis under lysosomal stress; assay type: cell-based, human
Procedure: FIGS. 3A, 3B, 3C, 3D, 3E, 3F, 3G, 3H, 3I, 3J, and 3K. Ykt6 is activated in response to lysosomal stress. 3A) Ykt6 membrane shift analysis in bafA1 (200 nM, 2 hrs) or NH4Cl (1M, 12 hrs) treated iPSn (d60). CBB, coomassie brilliant blue, (BafA1 and NH4Cl are indicated, n=7-10). 3B) Co-IP of GFP-ykt6 and bet1 in control iPSn (d60) treated with bafA1 (n=3). 3C) Ykt6 and GM130 immunofluorescence analysis of bafA1-treated H4 cells (n=9). Scale bars=10 um. 3D) Ykt6 membrane shift analysis in CBE-treated SH-SY5Y cells (50 μM, 2d, n=3). 3E) Co-IP of GFP-ykt6, bet1 and STX5 in CBE-treated SHSY5Y cells (n=5). 3F) Ykt6 membrane shift analysis in control or Gaucher disease (GD) iPSn (d100). a-Syn was knocked-out (SNCA KO) in GD lines by CRISPR/Cas9. Two exposures are included to better visualize cyt and mem ykt6 (n=4). 3G) Ykt6 membrane shift analysis in lenti-infected SH-SY5Y cells (moi3, dpi 10) (n=3). C, cytosolic; N, nuclear. 3H) GCase maturation was assessed by endo H digest in lenti-infected SH-SY5Y cells. Empty vector (vect), scrambled (scrb). 3I) Control iPSn were infected as in 3H and analyzed for GCase maturation (n=3). 3J) Live cell GCase activity in lenti-infected iPSn (n=4). 3K) Lysosomal mass measurement in control iPSn (n=4). Values are the mean+/−SEM, *p<0.05.
FIGS. 12A, 12B, 12C, 12D, 12E, and 12F. The effects of ykt6 knock-down on the lysosomal system and characterization of GD-SNCA KO iPSCs. […] 12B) Protein secretion was measured by radioactive pulse-chase from the same culture wells that correspond to proteolysis data of FIG. 2H. 12C) Control iPSn were treated with 50 mM sucrose for 7 days followed by membrane shift analysis of ykt6. 12D) Control iPSn were infected with scrambled (S) or ykt6 shRNA (KD) and treated with or without sucrose as done in panel B. LAMP1 levels were analyzed by western blot. GAPDH is a loading control (n=4). 12E) Cultures were treated as described in panel C, and analyzed for GCase maturation by western blot analysis (n=4). For all quantifications, values are the mean+/−SEM, *p<0.05. 12F) Analysis of off-target edits by CRISPR/Cas9 in SNCA knock out (KO) Gaucher disease iPSCs. The targeting strategy has been previously published (Zunke et al., 2018). Genomic sequences showing the closest homology to SNCA were analyzed for mis-matched mutations by T7 digestion, and compared to the parental GD line. PCR amplicons were analyzed by agarose gel electrophoresis stained with ethidium bromide. For all quantifications, values are the mean+/−SEM, *p<0.05. Student's T-test was used in panel 12A, while ANOVA with Tukey's post-hoc test was used in panels 12D and 12E.
Separation of lysates into cytosol and membrane fractions. […]

SNARE binding (STX5 co-IP) [2]: increases SNARE binding
Compound: Cc1cc(C(=O)N2CCC(Cn3cc(CN4CC[C@@H](N)C4)nn3)CC2)sc1C [Compound #20, (3R)-1-[(1-{[1-(4,5-dimethylthiophene-2-carbonyl)piperidin-4-yl]methyl}-1H-1,2,3-triazol-4-yl)methyl]pyrrolidin-3-amine]
ykt6 activity (GFP-ykt6 colocalization with GM130, Pearson's correlation) [1]: can activate ykt6; also recorded: increases ykt6 activity

Compound: CO/C1=C\C(C)=C\[C@@H](C)[C@@H](O)[C@@H](C)C/C(C)=C/C=C/[C@H](OC)[C@@H]([C@@H](C)[C@@H](O)[C@H](C)[C@@]2(O)C[C@@H](O)[C@H](C)[C@@H](C(C)C)O2)OC1=O [bafilomycin A1]
assembly of ykt6 ER-Golgi SNARE complexes (co-IP GFP-ykt6 and bet1) ([3]; control iPSn (d60)): promoted the assembly of ykt6 ER-Golgi SNARE complexes
ykt6 cytosol/membrane distribution ([4]; healthy control iPSn (d60), 200 nM, 2 hrs): caused a shift of ykt6 from the cytosol into membrane fractions

Compound: O[C@H]1[C@H](O)[C@@H](O)[C@@H]2O[C@@H]2[C@@H]1O [CBE]
ykt6 SNARE complexes (co-IP GFP-ykt6, bet1 and STX5) ([3]; SHSY5Y cells): increased ykt6 SNARE complexes
ykt6 cytosol/membrane distribution ([4]; SH-SY5Y cells, 50 μM, 2d): caused ykt6 to shift into membranes

Compound: OC[C@H]1O[C@@](CO)(O[C@H]2O[C@H](CO)[C@@H](O)[C@H](O)[C@H]2O)[C@@H](O)[C@@H]1O [sucrose]
ykt6 cytosol/membrane distribution ([4]; control iPSn, 50 mM, 7 days): caused ykt6 to shift into membranes

Compound: Cl.N [NH4Cl]
ykt6 cytosol/membrane distribution ([4]; healthy control iPSn (d60), 1M, 12 hrs): caused a shift of ykt6 from the cytosol into membrane fractions
